The values below come from US6824998B2, “Compounds and methods for detecting tripeptidyl protease I” (University of Iowa Research Foundation, priority 2003, dated 2004).

In this assay the target is T1, TPP-1 (Mus musculus, UniProt O89023).
T1 construct: from tissue; host or cells: frozen 10 µm sections of paraformaldehyde-fixed tissues (e.g. kidney) from C57BL/6J mice (Jackson Laboratory)
T1 sequence (O89023 195-562): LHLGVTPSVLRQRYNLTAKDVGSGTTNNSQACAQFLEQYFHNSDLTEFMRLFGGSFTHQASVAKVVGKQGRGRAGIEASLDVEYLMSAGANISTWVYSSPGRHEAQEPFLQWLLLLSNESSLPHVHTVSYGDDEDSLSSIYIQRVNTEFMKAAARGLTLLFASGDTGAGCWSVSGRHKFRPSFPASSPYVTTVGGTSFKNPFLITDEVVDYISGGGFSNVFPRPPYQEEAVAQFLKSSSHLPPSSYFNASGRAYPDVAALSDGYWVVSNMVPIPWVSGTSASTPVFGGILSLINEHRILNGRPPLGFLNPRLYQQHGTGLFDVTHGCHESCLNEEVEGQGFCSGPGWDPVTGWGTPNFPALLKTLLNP
Kind of assay: TPP-1 histochemical staining of frozen sections of murine tissues. As to conditions: for Effectiveness of p-NBA and p-AA versus benzaldehyde with regard to precipitate density and color: aldehyde comparison; for Hydrolysis by endogenous TPP-1 in murine tissues / Specificity of TPP-1 detection / background activity: frozen sections of murine tissues. The assay is classed as biochemical. As to the method: C57BL/6J mice (6 to 8 weeks old) were purchased from the Jackson Laboratory (Bar Harbor, Me.). The mice were sacrificed with an overdose of anesthetic and then transcardially perfused with 0.9% (w/v) saline solution, followed by 2% paraformaldehyde in 0.2 M phosphate buffer. The tissues were removed and post-fixed for 2 hours. After fixation, the tissues were cryoprotected by immersion in 25% sucrose and frozen in OCT compound (Sakura Finetek U.S.A., Inc, Torrance, Calif.). Sections (10 μm) were cut with a cryostat and mounted onto gelatin-coated slides.
Sections were embedded in 0.5% celloidin, followed by incubation in substrate solutions. The sections were incubated in substrate solutions containing 1 mM of the compound, 1 mg/mL of benzaldehyde (BA) or p-anisaldehyde (p-AA) or p-nitrobenzaldehyde (p-NBA) in 0.1 M acetate buffer (pH 4.5) at 37° C. for 4 hours. Slides were rinsed and cover-slipped before viewing on a Leica DM RBE microscope equipped with a Spot-RT Digital Camera and associated software. For all experiments, tissue staining was repeated on a minimum of 5 sections/animal per compound. A minimum of three individual animals was tested to confirm consistency of the results.
Five different compounds, compounds 10, 16, 20, 27, and 31, were tested histochemically on frozen sections of murine tissues. The substrates were systematically compared for sensitivity to TPP-1 activity using conditions to control the rate of crystalline formation and diffusion of product.

Regarding `C[C@H](NC(=O)[C@@H]1CCCN1C(=O)CN)C(=O)n1nc2c3c(c(Cl)ccc31)C(=O)c1ccccc1-2` [Compound 10, Gly-L-Pro-L-Ala-5-chloro-1-anthra[1,9-cd]pyrozol-6(2H)-one], the “Effectiveness of p-NBA and p-AA versus benzaldehyde with regard to precipitate density and color” value is given as “more effective than benzaldehyde itself”; the “Hydrolysis by endogenous TPP-1 in murine tissues” value (from here on “Hydrolysis”) is “readily hydrolyzed”; the “Specificity of TPP-1 detection / background activity” value is listed as “low to no background activity”. Moreover, under “Benzaldehyde”, the “Autofluorescence of the final reaction product of TPP-1 histochemical staining” value (shortened to “Autofluorescence”) is on record as “Autofluorescent” and the “Color of the final reaction product of TPP-1 histochemical staining” value (from here on “Color … of TPP-1 histochemical staining”) is “Yellow-green”. For the setting “p-Anisaldehyde”, the “Autofluorescence” value is on record as “Autofluorescent” and the “Color … of TPP-1 histochemical staining” value is recorded as “Yellow-green”. Where the note is “p-Nitrobenzaldehyde”, the “Autofluorescence” value is reported as “Autofluorescent” and the “Color … of TPP-1 histochemical staining” value is “Yellow-green”.
Turning to `C[C@H](NC(=O)[C@@H]1CCCN1C(=O)CN)C(=O)NNc1cccc2c1C(=O)c1ccccc1C2=O` [Compound 16, Gly-L-Pro-L-Ala-1-anthraquinonylhydrazide], the “Hydrolysis” value is “no evidence of hydrolysis”.
Consider `NCC(=O)N1CCC[C@H]1C(=O)N[C@@H](CO)C(=O)NNc1cccc2c1C(=O)c1ccccc1C2=O` [Compound 20, Gly-L-Pro-L-Ser-1-anthraquinonylhydrazide], for which the “Effectiveness of p-NBA and p-AA versus benzaldehyde with regard to precipitate density and color” value was “more effective than benzaldehyde itself”; the “Hydrolysis” value is reported as “readily hydrolyzed”; the “Specificity of TPP-1 detection / background activity” value is reported as “low to no background activity”. For the same molecule, where the note is “Benzaldehyde”, the “Color … of TPP-1 histochemical staining” value is on record as “Brown”. Further, the “Sensitivity for detecting TPP-1 activity” value (combination with p-AA, purple precipitates in areas of high endogenous enzyme activity (e.g., kidney)) is “most sensitive”. Besides, the “Color … of TPP-1 histochemical staining” value (p-Anisaldehyde) is listed as “Dark Purple”. Moreover, for the setting “p-Nitrobenzaldehyde”, the “Color … of TPP-1 histochemical staining” value is reported as “Brown”. Besides, the “Effectiveness as histochemical reagent for detecting TPP-1” value (particularly when combined with p-anisaldehyde) is given as “most effective histochemical reagent”.
As for `C[C@H](N)C(=O)N[C@@H](C)C(=O)N[C@@H](Cc1ccccc1)C(=O)NNc1cccc2c1C(=O)c1ccccc1C2=O` [Compound 27, L-Ala-L-Ala-L-Phe-1-anthraquinonylhydrazide], the “Effectiveness of p-NBA and p-AA versus benzaldehyde with regard to precipitate density and color” value is listed as “more effective than benzaldehyde itself”; the “Hydrolysis” value is recorded as “readily hydrolyzed”; the “Specificity of TPP-1 detection / background activity” value is reported as “low to no background activity”. Besides, the “Color … of TPP-1 histochemical staining” value (Benzaldehyde) is listed as “Yellow-green”. The “Color … of TPP-1 histochemical staining” value (p-Anisaldehyde) is “Yellow-green”. Also, the “Color … of TPP-1 histochemical staining” value (p-Nitrobenzaldehyde) is listed as “Yellow-green”.
With `C[C@H](N)C(=O)N[C@@H](C)C(=O)N[C@H](Cc1ccccc1)C(=O)NNc1cccc2c1C(=O)c1ccccc1C2=O` [Compound 31, L-Ala-L-Ala-D-Phe-1-anthraquinonylhydrazide], the “Hydrolysis” value was “no evidence of hydrolysis”.
